Results on ten compounds are retold here after PMC11396972, “Synthesis of Hybrid Molecules with Imidazole-1,3,4-thiadiazole Core and Evaluation of Biological Activity on Trypanosoma cruzi and Leishmania donovani” (Molecules, 2024).

The structures appear in SMILES notation.

Series [1] deals with Leishmania donovani promastigotes (LD51 strain). The series can be described thus: Estimation of IC50 on promastigotes of L. donovani, MTT test. It counts as cell-based. To be noted: 72 h, eight concentrations 5–500 µM, triplicate. Here is the method: (§1) Parasites were collected in the logarithmic phase of growth before the experiments. The test compounds, as well as the reference drugs, metronidazole, nifurtimox and amphotericin B, were previously dissolved in DMSO and then in LIT medium and added to the cultures at the required concentrations; the final DMSO concentration in cultures was 1% (v/v). Eight concentrations of each compound in the range 5–500 µM were tested and assayed in triplicate. Growth inhibition was assessed after 72 h incubation in the presence of the compounds by MTT (5 mg/mL), dissolved in PBS, and incubated for 4 h in the dark. Finally, the parasites were lysed with DMSO and the plate was read in a spectrophotometer at 570 nm.

Series [2] has the same test system. The series can be described thus: Proliferation of L. donovani promastigotes, MTT test, single concentration. To be noted: 72 h incubation, read-out: L. donovani % Inhibition ± SD (antiproliferative activity). Format: cell-based. Here is the method: A drug-free control (negative control) was included and positive controls were Metronidazole (Mtz), Benznidazole (Bnz), Amphotericin B (Aph), and Nifurtimox (Nfx), (50 μM). […] Parasites were collected in the logarithmic phase of growth before the experiments. It was arranged in plates of 96 wells, 4 × 10^5 promastigotes per well and incubated at room temperature °C for 24 h. Subsequently, the compounds to be evaluated, dissolved in DMSO (0.1% final), were added at a single concentration of 50 μM, a drug-free control (negative control) was included, and amphotericin B was used as leishmanicidal control. To select those compounds active on promastigotes, it was incubated for 72 h after and then MTT (5 mg/mL), dissolved in PBS, was added and incubated for 4 h in the dark. Finally, the cells were lysed with DMSO and the plate was read in a spectrophotometer at 570 nm.

The nature of series [3]: Host cell toxicity assay, MTT. It counts as cell-based. To be noted: African green monkey, Vero cells (uninfected); Vero cells, 48 h, MTT; read-out: CC50 (μM) cytotoxicity on Vero cells. On the procedure:
(§2) To determine the possible toxic effects of the compounds on the host cells, uninfected Vero cells, maintained in DMEM, BSF 10%, incubated at 37 °C in humidified 5% CO2, were counted in suspension in a Neubauer chamber and seeded at 2 × 10^4 cells/well in a 96-well plate. After 24 h compounds were added. […] A total of 5 mg/mL of MTT was added and incubated in darkness for 4 h. After this time, DMSO was added and the plate was read at 540 nm in a spectrophotometer Synergy HT (Biotek, Winooski, VT, USA).

The subject of series [4] is Trypanosoma cruzi epimastigotes (Y strain (TCII)). The series can be described thus: Proliferation of T. cruzi epimastigotes, MTT test, single concentration. To be noted: 72 h incubation; for inhibition at 50 µM: Trypanosoma cruzi, 72 h, read-out: T. cruzi % Inhibition ± SD (antiproliferative activity); for T. cruzi % Inhibition ± SD (antiproliferative activity): 50 μM. It counts as cell-based. Here is the method: A drug-free control (negative control) was included and positive controls were Metronidazole (Mtz), Benznidazole (Bnz), Amphotericin B (Aph), and Nifurtimox (Nfx), (50 μM). […] Parasites were collected in the logarithmic phase of growth before the experiments. It was arranged in plates of 96 wells, 2 × 10^5 epimastigotes per well and incubated at 28 °C for 24 h. Subsequently, the compounds to be evaluated, dissolved in DMSO (0.1% final), were added at a single concentration of 50 μM. A drug-free control (negative control) was included, and benznidazole and nifurtimox were included as positive controls. […] Finally, the cells were lysed with DMSO and the plate was read in a spectrophotometer at 570 nm.

Series [5] shares this test system. The series can be described thus: Estimation of IC50 on epimastigotes of T. cruzi, MTT test. It counts as cell-based. To be noted: 72 h, eight concentrations 5–500 µM, triplicate. On the procedure: as §1
Another series has as its system Vero cells. The series can be described thus: Host cell toxicity assay, MTT. It counts as cell-based. To be noted: for L. donovani (SI) selectivity index: Vero cells CC50 versus L. donovani IC50; for T. cruzi (SI) selectivity index: Vero cells CC50 versus T. cruzi IC50. Here is the method: as §2

For the compound `C[C@@H]1[C@H](O)[C@@H](C)/C=C/C=C/C=C/C=C/C=C/C=C/C=C/[C@H](O[C@@H]2O[C@H](C)[C@@H](O)[C@H](N)[C@@H]2O)C[C@@H]2O[C@](O)(C[C@@H](O)C[C@@H](O)[C@H](O)CC[C@@H](O)C[C@@H](O)CC(=O)O[C@H]1C)C[C@H](O)[C@H]2C(=O)O` [Aph, Amphotericin B, reference compound], in series [1], the IC50 was 0.33 ± 0.02 µM. Moreover, in series [2], the inhibition at 50 µM is 62.4 ± 6.6%. Also, the cytotoxic concentration (CC50) at 48 h in series [3] is above 250 µM.

Consider `O=C(Cn1ccnc1[N+](=O)[O-])NCc1ccccc1` [Bnz, Benznidazole, reference compound], for which the inhibition at 50 µM in series [4] is 45.4 ± 6.21%.

For the compound `Cc1ncc([N+](=O)[O-])n1CCOC(=O)c1ccc(Nc2nnc(-c3cccnc3)s2)cc1` [Compound 18, 2-(2-Methyl-5-nitro-1H-imidazol-1-yl)ethyl-4-[(5-(pyridin-3-yl)-1,3,4-thiadiazol-2-yl]amino)benzoate], the melting point was 232 to 234 °C. For the same compound, in series [4], the inhibition at 50 µM amounted to 17.4 ± 14.4%. Also, the inhibition at 50 µM in series [2] worked out at 10.1 ± 2.92%.

In turn, `Cc1ncc([N+](=O)[O-])n1CCOC(=O)c1ccc(Nc2nnc(-c3cccc(Cl)c3)s2)cc1` [Compound 19, 2-(2-Methyl-5-nitro-1H-imidazol-1-yl)ethyl-4-{[5-(3-chlorophenyl)-1,3,4-thiadiazol-2-yl]amino}benzoate] gave a melting point of 202 to 204 °C. In series [4], the “T. cruzi % Inhibition ± SD (antiproliferative activity)” value (shortened to “T. cruzi % Inhibition ± SD”) is reported as 53.10 ± 3.68% and the inhibition at 50 µM was around 50%. For the same compound, the half-maximal inhibitory concentration (IC50) in series [1] was 59.7 ± 8.82 µM. Moreover, the inhibition at 50 µM in series [2] is 31.8 ± 1.95%. Also, the IC50 in series [5] was 56.3 ± 6.83 µM. In addition, the CC50 at 48 h in series [3] was above 500 µM. Further, in the series with Vero cells, the “L. donovani (SI) selectivity index” value is listed as above 8.37 and the “T. cruzi (SI) selectivity index” value is above 8.87.

Compound `Cc1ncc([N+](=O)[O-])n1CCOC(=O)c1ccc(Nc2nnc(-c3ccc(Cl)cc3)s2)cc1` [Compound 20, 2-(2-Methyl-5-nitro-1H-imidazol-1-yl)ethyl-4-{[5-(4-chlorophenyl)-1,3,4-thiadiazol-yl]amino}benzoate] displayed a melting point of 242 to 244 °C. For the same compound, in series [4], the “T. cruzi % Inhibition ± SD” value came out at 49.37 ± 4.45% and the inhibition at 50 µM was around 50%. The IC50 in series [1] was 54.5 ± 8.51 µM. Moreover, in series [2], the inhibition at 50 µM was 40.4 ± 4.18%. Moreover, in series [5], the 50% inhibitory concentration (IC50) is 51.7 ± 6.59 µM. For the same compound, in series [3], the CC50 at 48 h was above 500 µM. In addition, in the series with Vero cells, the “L. donovani (SI) selectivity index” value was above 9.17 and the “T. cruzi (SI) selectivity index” value is above 9.67.

`Cc1ncc([N+](=O)[O-])n1CCOC(=O)c1ccc(Nc2nnc(-c3ccccc3)s2)cc1` [Compound 21, 2-(2-Methyl-5-nitro-1H-imidazol-1-yl)ethyl-4-[(5-phenyl-1,3,4-thiadiazol-2-yl)amino]benzoate] showed a melting point of 240 to 242 °C. In addition, in series [4], the “T. cruzi % Inhibition ± SD” value is 58.35 ± 2.05% and the inhibition at 50 µM is around 50%. Further, the half-inhibitory concentration (IC50) in series [1] is 10.1 ± 2.21 µM. The inhibition at 50 µM in series [2] came to 71.4 ± 5.28%. For the same compound, the IC50 in series [5] was 55.5 ± 7.2 µM. Besides, the half-maximal cytotoxic concentration (CC50) at 48 h in series [3] is above 500 µM. Besides, in the series with Vero cells, the “L. donovani (SI) selectivity index” value was above 49.65 and the “T. cruzi (SI) selectivity index” value was above 9.01.

For the compound `Cc1ncc([N+](=O)[O-])n1CCOC(=O)c1ccc(Nc2nnc(-c3ccc(-c4ccccc4)cc3)s2)cc1` [Compound 22, 2-(2-Methyl-5-nitro-1H-imidazol-1-yl)ethyl-4-{[5-((1,1’-biphenyl)-4-yl)-1,3,4-thiadiazol-2-yl]amino}benzoate], the melting point is above 300 °C. For the same compound, the inhibition at 50 µM in series [4] amounted to 7 ± 2.28%. The inhibition at 50 µM in series [2] was 12.9 ± 2.08%.

`COc1cc(-c2nnc(Nc3ccc(C(=O)OCCn4c([N+](=O)[O-])cnc4C)cc3)s2)cc(OC)c1OC` [Compound 23, 2-(2-Methyl-5-nitro-1H-imidazol-1-yl)ethyl-4-{[5-(3,4,5-trimethoxyphenyl)-1,3,4-thiadiazol-2-yl]amino}benzoate] yielded a melting point of 252 °C. In addition, in series [4], the inhibition at 50 µM came to 20.3 ± 6.73%. Moreover, in series [2], the inhibition at 50 µM turned out to be 12.7 ± 2.31%.

Take `Cc1ncc([N+](=O)[O-])n1CCO` [Mtz, Metronidazole, reference compound]: the inhibition at 50 µM in series [4] was determined as 12.2 ± 5.3%. The values for the IC50 in series [1] and in series [5] were 50.3 ± 11.9 µM and 180 ± 18.9 µM, respectively.

For `CC1CS(=O)(=O)CCN1/N=C/c1ccc([N+](=O)[O-])o1` (stereo not shown) [Nfx, Nifurtimox, reference compound], in series [4], the inhibition at 50 µM amounted to 83 ± 1.6%. Also, in series [5], the concentration for half-maximal inhibition (IC50) is 1.81 ± 0.45 µM. Moreover, the half-maximal cytotoxic concentration (CC50) at 48 h in series [3] is above 90 µM.
